Article PMC8070004, “Isorhamnetin Ameliorates Dry Eye Disease via CFTR Activation in Mice” (International Journal of Molecular Sciences, 2021)

Target: WT-CFTR (Homo sapiens, UniProt P13569)
Assay: Whole-cell patch clamp in CHO-K1 cells expressing WT-CFTR
Assay type: cell-based
Set-up: expressed in transfected cells; host or cells: CHO-K1
Conditions: 30 μM isorhamnetin; linear current/voltage relationship
Protocol: Whole-cell, patch clamp recordings were performed on CFTR-expressing CHO cells. The bath solution contained (in mM) 140 NMDG-Cl, 1 CaCl2, 1 MgCl2, 10 glucose, and 10 HEPES (pH 7.4). The pipette solution contained (in mM) 130 CsCl, 0.5 EGTA, 1 MgCl2, 1 Tris-ATP, and 10 HEPES (pH 7.2). […] Seal resistances were between 3 and 10 GΩ. After establishing the whole-cell configuration, CFTR was activated by forskolin and/or isorhamnetin. […] Recordings were made at room temperature using an Axopatch-200B (Axon Instruments, San Jose, CA, USA). Currents were digitized with a Digidata 1440A converter (Axon Instruments), filtered at 5 kHz, and sampled at 1 kHz.

Chain of WT-CFTR (P13569 whole entry): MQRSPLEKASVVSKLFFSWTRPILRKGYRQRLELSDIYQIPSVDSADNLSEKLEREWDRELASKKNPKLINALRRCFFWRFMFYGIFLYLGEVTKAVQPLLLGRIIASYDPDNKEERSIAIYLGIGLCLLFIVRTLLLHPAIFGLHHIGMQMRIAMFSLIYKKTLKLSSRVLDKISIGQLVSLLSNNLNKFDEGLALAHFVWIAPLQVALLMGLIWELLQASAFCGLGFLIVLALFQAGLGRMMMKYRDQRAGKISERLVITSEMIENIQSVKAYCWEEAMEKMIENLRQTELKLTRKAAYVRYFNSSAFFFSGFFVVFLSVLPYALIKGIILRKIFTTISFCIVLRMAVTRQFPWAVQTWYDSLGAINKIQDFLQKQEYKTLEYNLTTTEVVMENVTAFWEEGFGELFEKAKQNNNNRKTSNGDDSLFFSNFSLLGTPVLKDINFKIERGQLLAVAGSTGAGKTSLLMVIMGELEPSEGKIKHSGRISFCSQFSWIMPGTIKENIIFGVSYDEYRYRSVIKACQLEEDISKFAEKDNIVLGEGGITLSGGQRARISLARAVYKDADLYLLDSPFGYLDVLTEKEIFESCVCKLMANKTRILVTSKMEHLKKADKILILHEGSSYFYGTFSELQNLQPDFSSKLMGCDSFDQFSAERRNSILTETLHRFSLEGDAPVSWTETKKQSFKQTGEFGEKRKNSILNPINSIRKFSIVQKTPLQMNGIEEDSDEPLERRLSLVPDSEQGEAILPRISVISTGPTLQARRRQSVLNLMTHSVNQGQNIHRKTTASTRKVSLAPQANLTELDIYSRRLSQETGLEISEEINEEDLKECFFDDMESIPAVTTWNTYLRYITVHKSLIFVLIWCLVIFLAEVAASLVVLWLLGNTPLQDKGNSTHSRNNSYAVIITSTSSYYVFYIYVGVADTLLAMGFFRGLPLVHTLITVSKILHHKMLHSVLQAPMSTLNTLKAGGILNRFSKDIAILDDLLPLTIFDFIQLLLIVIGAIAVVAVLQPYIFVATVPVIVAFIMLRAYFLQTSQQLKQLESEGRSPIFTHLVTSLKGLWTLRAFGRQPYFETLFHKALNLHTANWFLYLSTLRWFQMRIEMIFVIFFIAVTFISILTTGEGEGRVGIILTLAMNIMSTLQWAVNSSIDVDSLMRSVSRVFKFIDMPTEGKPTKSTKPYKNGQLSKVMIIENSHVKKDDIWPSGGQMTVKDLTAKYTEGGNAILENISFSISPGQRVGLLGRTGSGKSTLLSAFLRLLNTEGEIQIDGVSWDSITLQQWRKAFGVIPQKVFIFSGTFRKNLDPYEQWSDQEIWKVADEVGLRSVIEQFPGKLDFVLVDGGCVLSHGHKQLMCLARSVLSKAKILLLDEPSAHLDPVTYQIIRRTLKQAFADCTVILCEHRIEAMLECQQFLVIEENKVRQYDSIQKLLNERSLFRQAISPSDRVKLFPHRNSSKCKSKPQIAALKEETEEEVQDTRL

SMILES: COc1cc(-c2oc3cc(O)cc(O)c3c(=O)c2O)ccc1O [isorhamnetin]
- CFTR Cl- currents (whole-cell): fully activated
